Measured values published in PubChem BioAssay AID1259407 (Chemical Carcinogenesis Research Information System (CCRIS), 2018).
Calls of active or inactive are those of the source. No rule for the calls is given here.

System: CCRIS mutagenicity, Ames/micronucleus/aberration tests
Experiment: CCRIS mutagenicity studies
[1] = Test System: AMES SALMONELLA TYPHIMURIUM, Strain/Indicator: TA98(NR), Metabolic Activation: NONE, Method: PREINCUBATION
[2] = Test System: AMES SALMONELLA TYPHIMURIUM, Strain/Indicator: TA98, Metabolic Activation: NONE, Method: PREINCUBATION
[3] = Test System: AMES SALMONELLA TYPHIMURIUM, Strain/Indicator: TA100, Metabolic Activation: NONE, Method: PREINCUBATION

## Nc1nc(-c2ccc([N+](=O)[O-])cc2)nc2c1ncn2[C@@H]1O[C@H](CO)[C@@H](O)[C@H]1O
Test System: AMES SALMONELLA TYPHIMURIUM, Strain/Indicator: TA98(1,8-DNP), Metabolic Activation: NONE, Method: PREINCUBATION
  mutagenic call: active; positive
[1]
  mutagenic call: active; positive
Test System: AMES SALMONELLA TYPHIMURIUM, Strain/Indicator: TA98(NR), Metabolic Activation: RAT, LIVER, S-9, PCB, Method: PREINCUBATION
  mutagenic call: inactive; negative
[2]
  mutagenic call: active; positive
Test System: AMES SALMONELLA TYPHIMURIUM, Strain/Indicator: TA98, Metabolic Activation: RAT, LIVER, S-9, PCB, Method: PREINCUBATION
  mutagenic call: active; positive
Test System: AMES SALMONELLA TYPHIMURIUM, Strain/Indicator: TA100(1,8-DNP), Metabolic Activation: RAT, LIVER, S-9, PCB, Method: PREINCUBATION
  mutagenic call: inactive; negative
Test System: AMES SALMONELLA TYPHIMURIUM, Strain/Indicator: TA100(NR), Metabolic Activation: RAT, LIVER, S-9, PCB, Method: PREINCUBATION
  mutagenic call: inactive; negative
[3]
  mutagenic call: active; positive
Test System: AMES SALMONELLA TYPHIMURIUM, Strain/Indicator: TA100, Metabolic Activation: RAT, LIVER, S-9, PCB, Method: PREINCUBATION
  mutagenic call: active; positive
Test System: AMES SALMONELLA TYPHIMURIUM, Strain/Indicator: YG1020, Metabolic Activation: NONE, Method: PREINCUBATION
  mutagenic call: active; positive
Test System: AMES SALMONELLA TYPHIMURIUM, Strain/Indicator: YG1020, Metabolic Activation: RAT, LIVER, S-9, PCB, Method: PREINCUBATION
  mutagenic call: active; positive
Test System: AMES SALMONELLA TYPHIMURIUM, Strain/Indicator: YG1021, Metabolic Activation: NONE, Method: PREINCUBATION
  mutagenic call: active; positive
Test System: AMES SALMONELLA TYPHIMURIUM, Strain/Indicator: YG1021, Metabolic Activation: RAT, LIVER, S-9, PCB, Method: PREINCUBATION
  mutagenic call: active; positive
Test System: AMES SALMONELLA TYPHIMURIUM, Strain/Indicator: YG1024, Metabolic Activation: NONE, Method: PREINCUBATION
  mutagenic call: active; positive
Test System: AMES SALMONELLA TYPHIMURIUM, Strain/Indicator: YG1024, Metabolic Activation: RAT, LIVER, S-9, PCB, Method: PREINCUBATION
  mutagenic call: active; positive
Test System: AMES SALMONELLA TYPHIMURIUM, Strain/Indicator: YG1025, Metabolic Activation: NONE, Method: PREINCUBATION
  mutagenic call: active; positive
Test System: AMES SALMONELLA TYPHIMURIUM, Strain/Indicator: YG1025, Metabolic Activation: RAT, LIVER, S-9, PCB, Method: PREINCUBATION
  mutagenic call: active; positive
Test System: AMES SALMONELLA TYPHIMURIUM, Strain/Indicator: YG1026, Metabolic Activation: NONE, Method: PREINCUBATION
  mutagenic call: active; positive
Test System: AMES SALMONELLA TYPHIMURIUM, Strain/Indicator: YG1026, Metabolic Activation: RAT, LIVER, S-9, PCB, Method: PREINCUBATION
  mutagenic call: active; positive
Test System: AMES SALMONELLA TYPHIMURIUM, Strain/Indicator: YG1029, Metabolic Activation: NONE, Method: PREINCUBATION
  mutagenic call: active; positive
Test System: AMES SALMONELLA TYPHIMURIUM, Strain/Indicator: YG1029, Metabolic Activation: RAT, LIVER, S-9, PCB, Method: PREINCUBATION
  mutagenic call: active; positive

## O=[N+]([O-])c1ccc2oc3ccccc3c2c1
Test System: AMES SALMONELLA TYPHIMURIUM, Strain/Indicator: TA98(1,8-DNP6), Metabolic Activation: NONE, Method: PREINCUBATION
  mutagenic call: active; positive
Test System: AMES SALMONELLA TYPHIMURIUM, Strain/Indicator: TA98(1,8-DNP6), Metabolic Activation: NONE, Method: SUSPENSION
  mutagenic call: active; positive
Test System: AMES SALMONELLA TYPHIMURIUM, Strain/Indicator: TA98(1,8-DNP6), Metabolic Activation: RAT, LIVER, S-9, PCB (5%), Method: PREINCUBATION
  mutagenic call: active; positive
[1]
  mutagenic call: active; positive
Test System: AMES SALMONELLA TYPHIMURIUM, Strain/Indicator: TA98(NR), Metabolic Activation: NONE, Method: SUSPENSION
  mutagenic call: inactive; negative
Test System: AMES SALMONELLA TYPHIMURIUM, Strain/Indicator: TA98(NR), Metabolic Activation: RAT, LIVER, S-9 (10%), Method: PREINCUBATION
  mutagenic call: active; positive
Test System: AMES SALMONELLA TYPHIMURIUM, Strain/Indicator: TA98(NR), Metabolic Activation: RAT, LIVER, S-9, 3-METHYLCHOLANTHRENE (10%), Method: PREINCUBATION
  mutagenic call: active; positive
Test System: AMES SALMONELLA TYPHIMURIUM, Strain/Indicator: TA98(NR), Metabolic Activation: RAT, LIVER, S-9, BETA-NAPHTHOFLAVONE (10%), Method: PREINCUBATION
  mutagenic call: active; positive
Test System: AMES SALMONELLA TYPHIMURIUM, Strain/Indicator: TA98(NR), Metabolic Activation: RAT, LIVER, S-9, PCB (5%), Method: PREINCUBATION
  mutagenic call: active; positive
Test System: AMES SALMONELLA TYPHIMURIUM, Strain/Indicator: TA98(NR), Metabolic Activation: RAT, LIVER, S-9, PCB (10%), Method: PREINCUBATION
  mutagenic call: active; positive
Test System: AMES SALMONELLA TYPHIMURIUM, Strain/Indicator: TA98(NR), Metabolic Activation: RAT, LIVER, S-9, PHENOBARBITAL (10%), Method: PREINCUBATION
  mutagenic call: active; positive
[2]
  mutagenic call: active; positive
Test System: AMES SALMONELLA TYPHIMURIUM, Strain/Indicator: TA98, Metabolic Activation: NONE, Method: SUSPENSION
  mutagenic call: active; positive
Test System: AMES SALMONELLA TYPHIMURIUM, Strain/Indicator: TA98, Metabolic Activation: RAT, LIVER, S-9, PCB (5%), Method: PREINCUBATION
  mutagenic call: active; positive
Test System: AMES SALMONELLA TYPHIMURIUM, Strain/Indicator: TA98, Metabolic Activation: RAT, LIVER, S-9, PCB, Method: SUSPENSION
  mutagenic call: active; positive
[3]
  mutagenic call: inactive; negative
Test System: AMES SALMONELLA TYPHIMURIUM, Strain/Indicator: TA100, Metabolic Activation: NONE, Method: SUSPENSION
  mutagenic call: inactive; negative
Test System: AMES SALMONELLA TYPHIMURIUM, Strain/Indicator: TA100, Metabolic Activation: RAT, LIVER, S-9, PCB (5%), Method: PREINCUBATION
  mutagenic call: inactive; negative
Test System: AMES SALMONELLA TYPHIMURIUM, Strain/Indicator: TA100, Metabolic Activation: RAT, LIVER, S-9, PCB, Method: SUSPENSION
  mutagenic call: inactive; negative

## Oc1c(Cl)cc(Cl)c2cccnc12
[2]
  mutagenic call: inactive; negative
Test System: AMES SALMONELLA TYPHIMURIUM, Strain/Indicator: TA98, Metabolic Activation: RAT, LIVER, S-9, Method: PREINCUBATION
  mutagenic call: inactive; negative
[3]
  mutagenic call: inactive; negative
Test System: AMES SALMONELLA TYPHIMURIUM, Strain/Indicator: TA100, Metabolic Activation: RAT, LIVER, S-9, Method: PREINCUBATION
  mutagenic call: inactive; negative

## C=Cc1ccc(S(=O)(=O)O)cc1
Test System: Ames Salmonella typhimurium, Strain/Indicator: TA98, Metabolic Activation: None, Method: Preincubation
  mutagenic call: inactive; negative
Test System: Ames Salmonella typhimurium, Strain/Indicator: TA98, Metabolic Activation: Rat, Liver, S-9, Phenobarbital and 5,6-benzoflavone, Method: Preincubation
  mutagenic call: inactive; negative
Test System: Ames Salmonella typhimurium, Strain/Indicator: TA100, Metabolic Activation: None, Method: Preincubation
  mutagenic call: inactive; negative
Test System: Ames Salmonella typhimurium, Strain/Indicator: TA100, Metabolic Activation: Rat, Liver, S-9, Phenobarbital and 5,6-benzoflavone, Method: Preincubation
  mutagenic call: inactive; negative
Test System: Ames Salmonella typhimurium, Strain/Indicator: TA1535, Metabolic Activation: None, Method: Preincubation
  mutagenic call: inactive; negative
Test System: Ames Salmonella typhimurium, Strain/Indicator: TA1535, Metabolic Activation: Rat, Liver, S-9, Phenobarbital and 5,6-benzoflavone, Method: Preincubation
  mutagenic call: inactive; negative
Test System: Ames Salmonella typhimurium, Strain/Indicator: TA1537, Metabolic Activation: None, Method: Preincubation
  mutagenic call: inactive; negative
Test System: Ames Salmonella typhimurium, Strain/Indicator: TA1537, Metabolic Activation: Rat, Liver, S-9, Phenobarbital and 5,6-benzoflavone, Method: Preincubation
  mutagenic call: inactive; negative
Test System: E. coli, Strain/Indicator: WP2uvrA/pKM101, Metabolic Activation: None, Method: Preincubation
  mutagenic call: inactive; negative
Test System: E. coli, Strain/Indicator: WP2uvrA/pKM101, Metabolic Activation: Rat, Liver, S-9, Phenobarbital and 5,6-benzoflavone, Method: Preincubation
  mutagenic call: inactive; negative
